The text below walks through data of ChEMBL document CHEMBL1155123, “Synthesis and discovery of autophagy inducers for A549 and H460 lung cancer cells, novel 1-(2'-hydroxy-3'-aroxypropyl)-3-aryl-1H-pyrazole-5-carbohydrazide derivatives” (Bioorg Med Chem Lett, 2008).

A word on the IC50: it is the midpoint of a concentration-inhibition curve. A low value points to greater potency.

Calls of active or inactive are those of the source. The calls are words filed in the database; no cut-off is given here.

For data set [1], the system named is NCI-H460. Nature of the data set: Induction of necrosis in human H460 cells assessed as LDH release at 80 uM after 24 hrs. The class given is functional, cell-based. A general note: LDH in the medium is a marker of cell lysis.
In data set [2] the test system is NCI-H460. Kind of data set: Induction of autophagy in human H460 cells assessed as nuclear and acidic compartment morphology at 80 uM after 24 hrs. It is filed as functional, cell-based.
Data set [3] relates to A549. Nature of the data set: Induction of autophagy in human A549 cells assessed as nuclear and acidic compartment morphology at 10 to 80 uM after 24 hrs. The class given is functional, cell-based.
In data set [4] the test system is A549. Kind of data set: Induction of necrosis in human A549 cells assessed as LDH release at 80 uM after 24 hrs. The class given is functional, cell-based.
Data set [5] has as its system A549. Nature of the data set: Induction of apoptosis in human A549 cells assessed as nuclear and acidic compartment morphology at 80 uM. The class given is functional, cell-based.
Data set [6] relates to A549. Nature of the data set: Induction of necrosis in human A549 cells assessed as LDH release at 80 uM after 48 hrs. The class given is functional, cell-based.
In data set [7] the test system is NCI-H460. Kind of data set: Induction of autophagy in human H460 cells assessed as nuclear and acidic compartment morphology at 80 uM after 48 hrs. The class given is functional, cell-based.
Data set [8] deals with A549. Nature of the data set: Growth inhibition of human A549 cells after 48 hrs by MTT assay. The class given is functional, cell-based. As to conditions: A549, 48 h. In general terms: Tetrazolium assays rely on reduction of a dye to a coloured formazan, in cell work by metabolically active cells.
For data set [9], the system named is A549. Kind of data set: Induction of autophagy in human A549 cells assessed as nuclear and acidic compartment morphology at 80 uM after 48 hrs. It is filed as functional, cell-based.
Data set [10] concerns NCI-H460. Nature of the data set: Induction of apoptosis in human H460 cells assessed as nuclear and acidic compartment morphology at 80 uM. The class given is functional, cell-based.
The test system of data set [11] is A549. Kind of data set: Growth inhibition of human A549 cells after 96 hrs by MTT assay. It is filed as functional, cell-based. As to conditions: A549, 96 h.
In data set [12] the test system is NCI-H460. Kind of data set: Induction of necrosis in human H460 cells assessed as LDH release at 80 uM after 48 hrs. The class given is functional, cell-based.
The test system of data set [13] is A549. Nature of the data set: Antiproliferative activity against human A549 cells assessed as cell viability at 80 uM after 48 hrs by MTT assay. The class given is functional. As to conditions: A549, 48 h, read-out: Activity.
The subject of data set [14] is A549. Nature of the data set: Antiproliferative activity against human A549 cells assessed as cell viability at 40 uM after 24 hrs by MTT assay. The class given is functional. As to conditions: A549, 24 h, read-out: Activity.
Data set [15] relates to HUVEC. Kind of data set: Antiproliferative activity against HUVEC assessed as cell viability after 48 hrs by MTT assay. The class given is cell-based. As to conditions: human.
Data set [16] relates to A549. Nature of the data set: Effect on morphological changes in human A549 cells at 10 to 80 uM after 24 hrs. It is filed as functional, cell-based.
For data set [17], the system named is A549. Kind of data set: Antiproliferative activity against human A549 cells assessed as cell viability at 40 uM after 48 hrs by MTT assay relative to control. It is filed as functional. As to conditions: A549, 48 h, read-out: Activity.
For data set [18], the system named is A549. Kind of data set: Antiproliferative activity against human A549 cells assessed as cell viability at 80 uM after 96 hrs by MTT assay. The class given is functional. As to conditions: A549, 96 h, read-out: Activity.
Data set [19] relates to HUVEC. Nature of the data set: Antiproliferative activity against HUVEC assessed as cell viability after 24 hrs by MTT assay. The class given is cell-based. As to conditions: human.
For data set [20], the system named is A549. Nature of the data set: Effect on morphological changes in human A549 cells at 10 to 80 uM after 48 hrs. It is filed as functional, cell-based.
Data set [21] has as its system HUVEC. Nature of the data set: Induction of HUVEC growth at 10 uM after 24 hrs by MTT assay. As to conditions: Homo sapiens. The class given is functional, cell-based.

Turning to `COc1ccc(-c2cc(C(=O)NN)n(CC(O)COc3ccccc3OC)n2)cc1` (centres undefined), the outcome in [1], in data set [4], in data set [5], in [6], in data set [10] and in [12] was inactive. The result in data set [2], in [3], in data set [7] and in [9] was Active. The IC50 is 70 µM in [8] and 51 µM in data set [11].

Consider `NNC(=O)c1cc(-c2ccccc2)nn1CC(O)COc1ccc([N+](=O)[O-])cc1` (centres undefined), for which the result in [1], in data set [4], in [5], in data set [6], in data set [10] and in data set [12] was inactive. Besides, the outcome in [2], in data set [3], in [7] and in data set [9] was Active. In addition, the IC50 in data set [8] is 72 µM; in data set [11], 45 µM.

`NNC(=O)c1cc(-c2ccccc2)nn1CC(O)COc1ccc(Cl)cc1` (centres undefined): the viability at 80 µM in [13] is 29%; in data set [18], 6%. In addition, the result in [1], in data set [4], in [5], in [6], in data set [10] and in data set [12] was inactive. Further, the outcome in data set [2], in [3], in [16], in data set [7], in data set [9] and in data set [20] was Active. In addition, the viability at 40 µM is 72% in data set [14] and 56% in [17]. The Activity entry in data set [15] and in data set [19] was “Not Active” in each case. Further, the IC50 is 48 µM in data set [8] and 30 µM in data set [11].

Consider `COc1ccc(-c2cc(C(=O)NN)n(CC(O)COc3ccc(Cl)cc3)n2)cc1` (centres undefined), for which the outcome in [1], in data set [4], in data set [5], in data set [6], in data set [10] and in data set [12] was inactive. Besides, the result in data set [2], in data set [3], in data set [7] and in [9] was Active. The viability at 40 µM was found to be 62% in data set [14] and 40% in [17]. Also, the IC50 was found to be 39 µM in data set [8] and 35 µM in data set [11].

Consider `NNC(=O)c1cc(-c2ccc(Cl)cc2)nn1CC(O)COc1ccc(Cl)cc1` (centres undefined), for which the values for the viability at 80 µM in data set [13] and in data set [18] were 29% and 6%, respectively. The result in [1], in [4], in [5], in data set [6], in [10] and in [12] was inactive. Further, the outcome in data set [2], in data set [3], in data set [16], in data set [7], in data set [21] and in [9] was Active. Further, the outcome in data set [20] was Active. Further, the viability at 40 µM in data set [14] was determined as 72%; in [17], 56%. For the same molecule, the Activity entry in data set [15] and in data set [19] was “Not Active” in each case. In addition, the IC50 in [8] was found to be 32 µM; in [11], 27 µM.

For `NNC(=O)c1cc(-c2ccc(Cl)cc2)nn1CC(O)COc1ccc([N+](=O)[O-])cc1` (centres undefined), the viability at 80 µM in data set [13] was 29%; in [18] it was 6%. For the same molecule, the outcome in data set [1], in [4], in data set [5], in [6], in [10] and in [12] was inactive. In addition, the outcome in data set [2], in data set [3], in data set [7] and in [9] was Active. Moreover, the viability at 40 µM in [14] was determined as 72%; in data set [17], 56%. Also, the half-maximal inhibitory concentration (IC50) was found to be 39 µM in data set [8] and 37 µM in data set [11].

For the molecule `COc1ccccc1OCC(O)Cn1nc(-c2ccccc2)cc1C(=O)NN` (centres undefined), the outcome in [1], in [4], in data set [5], in data set [6], in data set [10] and in [12] was inactive. Also, the outcome in data set [2], in data set [3], in [7] and in data set [9] was Active. The IC50 in [8] was determined as 72 µM; in data set [11], 49 µM.

As to `COc1ccccc1OCC(O)Cn1nc(-c2ccc(Cl)cc2)cc1C(=O)NN` (centres undefined), the outcome in data set [1], in data set [4], in data set [5], in data set [6], in data set [10] and in data set [12] was inactive. Also, the outcome in data set [2], in data set [3], in [7] and in [9] was Active. Further, the results for the IC50 in data set [8] and in [11] were 74 µM and 40 µM, respectively.
